The source of these data is patent US4757139A, “5-fluoro-2'-deoxyuridine derivative, processes for preparing same and antitumor composition containing the same” (Teijin Limited, priority 1983, dated 1988).

Like-named read-outs stand apart in the source and are kept apart here.

The nature of data set [1]: Rate of hydrolysis of 5-fluoro-2'-deoxyuridine derivatives by esterase. Format: in vitro ADME, porcine. The following applies: pig, liver esterase, pH 7.00, 37° C., read-out: t 1/2 (time for 1/2 of the derivative to be converted into parent compound). The protocol: Rate of hydrolysis of 5-fluoro-2'-deoxyuridine derivatives by esterase […] A 10 μg/ml isotonic solution of the experimental compound in a phosphate buffer (pH 7.00) was prepared and the […] (manufactured by Sigma) extracted from the porcine liver was added to the solution at 37° C. in such a way as to provide the enzyme concentration ranging from 0.03 units/ml to 150 units/ml. Then the sample (10 μl) was injected into an HPLC column periodically to determine the amount of 5-fluoro-2'-deoxyuridine release by the enzyme reaction.

The test system of a further data set is mouse leukemia L1210. The data set is described as follows: Antitumor activity against mouse leukemia L1210, oral administration. The following applies: for Antitumor effect in oral administration compared with 5-fluoro-2'-deoxyuridine and 3',5'-dioctanoyl-5-fluoro-2'-deoxyuridine: L1210-bearing mice, result in words. The class given is in vivo, BDF1 mice. As for the experimental part: (§1) The respective agents were administered orally three times, i.e. on the first day, third day, and fifth day, starting 24 hours after the implantation of tumor cells.

For data set [2], the system named is mouse leukemia cells L1210. The data set is described as follows: Antitumor activity against mouse leukemia L1210, intraperitoneal administration. The settings on record: for ILS30 (dose required to increase lifespan 30%) / Max. ILS (%): i.p. once a day for 5 consecutive days, L1210-bearing BDF1 mice; for Therapeutic index (ILS max./ILS30): mouse, in vivo, ip. The source says: Antitumor activity of 5-fluoro-2'-deoxyuridine derivatives (in intraperitoneal administration)
Experiments were made with the 5-fluoro-2'-deoxyuridine derivatives of this invention in order to know its antitumor effect against mouse leukemia cells L1210 in comparison with its parent compound 5-fluoro-2'-deoxyuridine and other known antitumor agents.
BDF1 mice (male, 6-week-old, Ca 24 g, in groups of 5 mice), which were abdominally implanted with 10^5 cells of mouse leukemia L1210, which had been collected after 7-day cultivation in other mice, were used in the experiments.
The respective agents were given to the experimental mice intraperitoneally once a day for 5 consecutive days starting 24 hours after the implantation of tumor cells.
The antitumor effect of the respective agents were indicated by the rate of increase in the length of the survival period obtained from the groups given the agents in contrast with the length of the survival period of the control group (not given the agents).
The dose, which is required to increase the lifespan of the experimental mice 30% as compared with the control group, is indicated by ILS30 and the dose, which is required to effect the maximum increase of lifespan (Max. ILS(%)), is indicated by ILS max. ILS max./ILS30 is to represent the therapeutic index which indicates the safety of the agents.

Data set [3] can be described thus: Change in body weight of L1210-bearing mice, oral administration. The settings on record: days 1-4. Format: in vivo, BDF1 mice. The protocol:
as §1

Data set [4] in a line: Release of FUdR from the compound due to the enzyme system in the plasma. Format: in vitro ADME. The following applies: 4×10^-5 M compound (FUdR 9.85 μg/ml), 20% rat plasma, pH 7.0, 37° C. As for the experimental part: Behavior to release FUdR from the compound due to the enzyme system in the plasma
The release rates of 5-fluoro-2'-deoxyuridine (FUdR) from the compound of this invention at 37° C. in the rat plasma (20%), diluted with 0.1M phosphate buffer, pH 7.0, were measured.
The compound of this invention was added to the plasma diluted with an isotonic solution of phosphate buffer to a concentration of 4×10^-5 M (corresponding to FUdR 9.85 μg/ml) and was incubated at 37° C. The sample (10 μl) was injected into an HPLC column periodically to determine the amount (μg/ml) of 5-fluoro-2'-deoxyuridine released by the enzymatic reaction.

The mark [5] stands for this setting: days 1, 3, 5, dose 10 mg/kg/day.
The mark [6] stands for this setting: days 1, 3, 5, dose 30 mg/kg/day.
Setting [7] is: days 1, 3, 5, dose 100 mg/kg/day.
Where [8] appears, read: days 1, 3, 5, dose 300 mg/kg/day.
[9] abbreviates: pH 7, enzyme concentration 0.045 units/ml.

On to `CCCCCCCCCC(=O)OC[C@H]1O[C@@H](n2cc(F)c(=O)[nH]c2=O)C[C@@H]1OC(=O)CCCCCCCCC` [3',5'-didecanoyl-5-fluoro-2'-deoxyuridine], for which the half-life amounted to 140 min in data set [1] (pH 7, enzyme concentration 0.3 units/ml) and 72 min in data set [1] (pH 7, enzyme concentration 0.6 units/ml). Besides, the “Antitumor effect in oral administration compared with 5-fluoro-2'-deoxyuridine and 3',5'-dioctanoyl-5-fluoro-2'-deoxyuridine” value in the data set with mouse leukemia L1210 is “much higher antitumor effect”. The “ILS (%)” value came to 7% in the data set with mouse leukemia L1210 (setting [5]), 26% in the data set on mouse leukemia L1210 (setting [6]), 15% with mouse leukemia L1210 (setting [7]) and 20% in the data set on mouse leukemia L1210 (setting [8]). For the same compound, the “ILS30 (dose required to increase lifespan 30%)” value in data set [2] was 18 µmol·days/kg. The “Max. ILS (%)” value in data set [2] worked out at 52%. Further, the “Therapeutic index (ILS max./ILS30)” value in data set [2] was found to be 10.0. The “Change in body weight (1-4 d, g/mouse)” value is reported as -0.8 g/mouse in data set [3] (dose 10 mg/kg/day), -1.4 g/mouse in data set [3] (dose 30 mg/kg/day), -2.4 g/mouse in data set [3] (dose 100 mg/kg/day) and -3.8 g/mouse in data set [3] (dose 300 mg/kg/day). The “Release rate of 5-fluoro-2'-deoxyuridine” value in data set [4] (after 100 min) stood at 4.7 µg/mL; in data set [4] (after 200 min) it was 6.7 µg/mL; in data set [4] (after 300 min), 7.8 µg/mL; in data set [4] (after 400 min) it was 8.5 µg/mL; in data set [4] (after 500 min) it was 9.3 µg/mL.

Consider `CCCCCCCCCCCC(=O)OC[C@H]1O[C@@H](n2cc(F)c(=O)[nH]c2=O)C[C@@H]1OC(=O)CCCCCCCCCCC` [3',5'-didodecanoyl-5-fluoro-2'-deoxyuridine], for which the half-life in data set [1] (pH 7, enzyme concentration 150.0 units/ml) stood at 4000 min. Moreover, the “Antitumor effect in oral administration compared with 5-fluoro-2'-deoxyuridine and 3',5'-dioctanoyl-5-fluoro-2'-deoxyuridine” value in the data set with mouse leukemia L1210 is given as “much higher antitumor effect”. The “ILS (%)” value is on record as 0% in the data set on mouse leukemia L1210 (setting [5]), 5% in the data set with mouse leukemia L1210 (setting [6]), 15% in the data set on mouse leukemia L1210 (setting [7]) and 40% in the data set on mouse leukemia L1210 (setting [8]). Also, the “ILS30 (dose required to increase lifespan 30%)” value in data set [2] was determined as 1.0 µmol·days/kg. For the same compound, in data set [2], the “Max. ILS (%)” value is on record as 62%. In addition, the “Therapeutic index (ILS max./ILS30)” value in data set [2] worked out at 45.0. The “Change in body weight (1-4 d, g/mouse)” value in data set [3] (dose 10 mg/kg/day) is given as “+1.0 g/mouse”; in data set [3] (dose 30 mg/kg/day), “+1.0 g/mouse”; in data set [3] (dose 100 mg/kg/day), 0 g/mouse; in data set [3] (dose 300 mg/kg/day), -2.6 g/mouse. For the same compound, the “Release rate of 5-fluoro-2'-deoxyuridine” value was found to be 1.2 µg/mL in data set [4] (after 100 min); 2.2 µg/mL in data set [4] (after 200 min); 2.9 µg/mL in data set [4] (after 300 min); 3.8 µg/mL in data set [4] (after 400 min); 4.2 µg/mL in data set [4] (after 500 min).

For the compound `CCCCCC(=O)OC[C@H]1O[C@@H](n2cc(F)c(=O)[nH]c2=O)C[C@@H]1OC(=O)CCCCC` [3',5'-dihexanoyl-5-fluoro-2'-deoxyuridine, reference compound], the half-life stood at 32.5 min in data set [1] (setting [9]); 24 min in data set [1] (pH 7, enzyme concentration 0.075 units/ml); 10 min in data set [1] (pH 7, enzyme concentration 0.15 units/ml). For the same compound, in data set [2], the “ILS30 (dose required to increase lifespan 30%)” value is 10 µmol·days/kg. Also, the “Max. ILS (%)” value in data set [2] was 38%. The “Therapeutic index (ILS max./ILS30)” value in data set [2] is listed as 4.3. For the same compound, the “Release rate of 5-fluoro-2'-deoxyuridine” value in data set [4] (after 100 min) worked out at 7.8 µg/mL; in data set [4] (after 200 min) it was 9.85 µg/mL.

For the compound `CCCCCCCC(=O)OC[C@H]1O[C@@H](n2cc(F)c(=O)[nH]c2=O)C[C@@H]1OC(=O)CCCCCCC` [3',5'-dioctanoyl-5-fluoro-2'-deoxyuridine, reference compound], the half-life in data set [1] (pH 7, enzyme concentration 0.03 units/ml) is 18.2 min; in data set [1] (setting [9]) it was 15.6 min. The “ILS (%)” value in the data set on mouse leukemia L1210 (setting [5]) was -5%; in the data set on mouse leukemia L1210 (setting [6]), 3%; in the data set with mouse leukemia L1210 (setting [7]), -5%; with mouse leukemia L1210 (setting [8]), 5%. The “Change in body weight (1-4 d, g/mouse)” value in data set [3] (dose 10 mg/kg/day) is reported as “+1.8 g/mouse”; in data set [3] (dose 30 mg/kg/day) it was “+1.6 g/mouse”; in data set [3] (dose 100 mg/kg/day), -2.8 g/mouse; in data set [3] (dose 300 mg/kg/day) it was -2.2 g/mouse. For the same compound, in data set [4] (after 100 min), the “Release rate of 5-fluoro-2'-deoxyuridine” value is 9.85 µg/mL.
